Measurements from ChEMBL document CHEMBL1201862, “PubChem BioAssay data set” (2004).
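The compound was tested at five concentrations on cells cultured in 96-well plates, with a 48-hour exposure period. GI50: concentration for 50% inhibition of growth.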 Activity calls are given as the source filed them. No stated cut-off is given here; in the data, active = GI50 up to about 1.1 µM and inactive = higher.

How the values were obtained:
Assay in all cases: DTP human tumour cell line panel, 48 h
786-0 = test system: 786-0
A498 = test system: A498
A549 = test system: A549
CAKI-1 = test system: CAKI-1
CCRF-CEM = test system: CCRF-CEM
HCT-116 = test system: HCT-116
HT-29 = test system: HT-29
MDA-MB-231 = test system: MDA-MB-231
MDA-N = test system: MDA-N
Malme-3M = test system: Malme-3M
NCI-H226 = test system: NCI-H226
NCI-H23 = test system: NCI-H23
NCI-H522 = test system: NCI-H522
OVCAR-3 = test system: OVCAR-3
OVCAR-4 = test system: OVCAR-4
SK-MEL-5 = test system: SK-MEL-5
SK-OV-3 = test system: SK-OV-3
SNB-19 = test system: SNB-19
SW-620 = test system: SW-620
UACC-257 = test system: UACC-257

Row | SMILES | GI50 (786-0) | GI50 (A498) | GI50 (A549) | GI50 (CAKI-1) | GI50 (CCRF-CEM) | GI50 (HCT-116) | GI50 (HT-29) | GI50 (MDA-MB-231) | GI50 (MDA-N) | GI50 (Malme-3M) | GI50 (NCI-H226) | GI50 (NCI-H23) | GI50 (NCI-H522) | GI50 (OVCAR-3) | GI50 (OVCAR-4) | GI50 (SK-MEL-5) | GI50 (SK-OV-3) | GI50 (SNB-19) | GI50 (SW-620) | GI50 (UACC-257)
1 | N#Cc1c(-c2ccccc2)cc(-c2ccccc2)n(C2OCC(O)C(O)C2O)c1=S (stereo not given) | 25.7 µM (inactive) | 19.7 µM (inactive) | 22.8 µM (inactive) | 32.5 µM (inactive) | 16.4 µM (inactive) | 14.7 µM (inactive) | 23 µM (inactive) | 0.946 µM (active) | 17.3 µM (inactive) | 30.7 µM (inactive) | 16.9 µM (inactive) | 21.3 µM (inactive) | 18.2 µM (inactive) | 22.3 µM (inactive) | 24.5 µM (inactive) | 14.7 µM (inactive) | 11.7 µM (inactive) | 26.6 µM (inactive) | 16.5 µM (inactive) | 33.3 µM (inactive)
2 | Cc1ccc(C(=O)/C(C#N)=C/Nc2c(C)n(C)n(-c3ccccc3)c2=O)cc1 | > 100 µM (inactive) | > 100 µM (inactive) | > 100 µM (inactive) | > 100 µM (inactive) | > 100 µM (inactive) | > 100 µM (inactive) | > 100 µM (inactive) | > 100 µM (inactive) | > 100 µM (inactive) | > 100 µM (inactive) | > 100 µM (inactive) | > 100 µM (inactive) | > 100 µM (inactive) | > 100 µM (inactive) | > 100 µM (inactive) | > 100 µM (inactive) | > 100 µM (inactive) | > 100 µM (inactive) | > 100 µM (inactive) | > 100 µM (inactive)
3 | CC(C(O)c1ccccc1)C(O)(C(F)(F)F)C(F)(F)F (stereo not given) | > 100 µM (inactive) | > 100 µM (inactive) | > 100 µM (inactive) | > 100 µM (inactive) | > 100 µM (inactive) | > 100 µM (inactive) | > 100 µM (inactive) | > 100 µM (inactive) | > 100 µM (inactive) | > 100 µM (inactive) | 69.7 µM (inactive) | > 100 µM (inactive) | > 100 µM (inactive) | > 100 µM (inactive) | > 100 µM (inactive) | 49.7 µM (inactive) | > 100 µM (inactive) | > 100 µM (inactive) | > 100 µM (inactive) | > 100 µM (inactive)
4 | NCCSc1nc2ccccc2s1 | 26.6 µM (inactive) | 32.9 µM (inactive) | 48.3 µM (inactive) | 38.5 µM (inactive) | 26.3 µM (inactive) | 33.7 µM (inactive) | 34 µM (inactive) | 40 µM (inactive) | 38.3 µM (inactive) | 50.8 µM (inactive) | 36.6 µM (inactive) | 41.7 µM (inactive) | 28.1 µM (inactive) | 38.6 µM (inactive) | 29 µM (inactive) | 52.7 µM (inactive) | 32.1 µM (inactive) | 64.7 µM (inactive) | 32.1 µM (inactive) | 47 µM (inactive)
5 | O=C(/C=C1\C[C@H]2C=Nc3ccccc3C(=O)N2C1)NCCCCCNC(=O)/C=C1\C[C@H]2C=Nc3ccccc3C(=O)N2C1 | 1.84 µM (inactive) | 19.1 µM (inactive) | 22.9 µM (inactive) | 2.6 µM (inactive) | 1.05 µM (active) | 6.14 µM (inactive) | 11.6 µM (inactive) | 16.2 µM (inactive) | 7 µM (inactive) | 2.52 µM (inactive) | > 51.5 µM (inactive) | 9.91 µM (inactive) | 0.726 µM (active) | 4.1 µM (inactive) | 7.53 µM (inactive) | 22.2 µM (inactive) | 16.2 µM (inactive) | 16.1 µM (inactive) | 2.1 µM (inactive) | 4.36 µM (inactive)
6 | COc1ccc(C(C#N)NCCCCCCNC(C#N)c2ccc(OC)cc2)cc1 (stereo not given) | > 100 µM (inactive) | > 100 µM (inactive) | > 100 µM (inactive) | > 100 µM (inactive) | > 100 µM (inactive) | > 100 µM (inactive) | > 100 µM (inactive) | > 100 µM (inactive) | > 100 µM (inactive) | > 100 µM (inactive) | > 100 µM (inactive) | > 100 µM (inactive) | > 100 µM (inactive) | > 100 µM (inactive) | > 100 µM (inactive) | > 100 µM (inactive) | > 100 µM (inactive) | > 100 µM (inactive) | > 100 µM (inactive) | > 100 µM (inactive)
7 | O=c1[nH]c(Nc2ccc(Br)c(C(F)(F)F)c2)nc2[nH]cnc12 | 40.1 µM (inactive) | 33.4 µM (inactive) | 72.1 µM (inactive) | 50 µM (inactive) | 43.8 µM (inactive) | 48.4 µM (inactive) | 27.6 µM (inactive) | 63.8 µM (inactive) | 34.4 µM (inactive) | 38.8 µM (inactive) | 47.5 µM (inactive) | 38.5 µM (inactive) | 18.5 µM (inactive) | 31.8 µM (inactive) | 47.1 µM (inactive) | 29.9 µM (inactive) | 45.1 µM (inactive) | 39.6 µM (inactive) | 57.9 µM (inactive) | 82 µM (inactive)
